Results published in patent publication US8889660B2, “Methods for treating obesity or an obesity related condition” (Case Western Reserve University, priority 2010, dated 2014).
“Also recorded” adds a separate entry of the source.

What was measured:
[1] = test system: retinoic acid receptor (RAR); assay: Activation of retinoic acid response element (RARE) / RAR; format: cell-based; conditions: FIGS. 1A-B, 7 and 8
Source text: FIG. 7 is a histogram showing the activation of retinoic acid response element (RARE) by all-trans-retinol (ROL), (13R)-all-trans-13,14-dihydroretinol (DROL R) and (13S)-all-trans-13,14-dihydroretinol (DROL S);
FIG. 8 is a histogram showing the activation of retinoic acid response element (RARE) by all-trans-retinoic acid (RA), (13R)-all-trans-13,14-dihydroretinoic acid (DRA R) and (13S)-all-trans-13,14-dihydroretinoic acid (DRA S); and
The at least one receptor may also include a retinoic acid receptor (RAR), such as RAR-α, RAR-β and RAR-γ which, when activated, translocates to a cell nucleus, binds to hormone response element on DNA, and elicits expression or transexpresssion of gene products. Alternatively, at least one response element, such as the RAR response element (RARE), can be activated.

[2] = target: T1, G-protein-coupled receptor 40 (GPR40) (Homo sapiens, UniProt O14842); assay: Calcium responses of GPR40-expressing cells (receptor screening); format: cell-based; conditions: calcium responses of GPR40 and Ga16 cells, FIGS. 1A-B
T1 construct: expressed in transfected cells; host or cells: GPR40-expressing recombinant cells
T1 sequence (O14842 whole entry, species assumed): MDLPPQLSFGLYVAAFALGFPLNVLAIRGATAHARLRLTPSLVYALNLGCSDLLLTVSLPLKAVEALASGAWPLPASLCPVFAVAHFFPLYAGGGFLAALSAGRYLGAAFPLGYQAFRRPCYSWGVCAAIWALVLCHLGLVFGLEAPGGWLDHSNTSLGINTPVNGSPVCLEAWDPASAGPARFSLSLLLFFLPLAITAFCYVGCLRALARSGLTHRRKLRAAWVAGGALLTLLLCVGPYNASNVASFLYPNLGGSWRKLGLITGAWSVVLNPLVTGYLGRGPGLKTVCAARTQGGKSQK
Description: FIGS. 1A-B are a series of histographs showing the screening of potential receptors for all-trans-13,14-dihydroretinoic acid. FIG. 1A is a histogram showing calcium responses of G-protein-coupled receptor 40 and Ga16 cells to 100 μM fatty acids and retinoic acids. FIG. 2A is a histogram showing calcium responses to retinoic acid compounds at 10 μM;
The activation of GPR40 by all-trans-13,14-dihydroretinoic acid is studied in vitro by measuring the calcium flux and internalization of GPR40 in response to all-trans-13,14-dihydroretinoic in GPR40-expressing recombinant cells. In collaboration with Dr. de Lera University of Vigo, Spain, we have produced synthetic enantiomerically pure (R) or (S) all-trans-13,14-dihydroretinol and all-trans-13,14-dihydroretinoic acid and we have determined the stereospecificity of the RetSat catalyzed reaction. Activation of GPR40 by all-trans-13,14-dihydroretinoic acid leading to secretion of insulin is studied by measuring the level of secreted insulin from INS-1 insulinoma cells or from primary pancreatic β-cells primed with all-trans-13,14-dihydroretinoic acid.

wild type mice = assay: Injection in wild type mice, glycemia; format: in vivo
[3] = target: retinol binding protein 4 (RBP4) (Homo sapiens, UniProt P02753); assay: Binding to RBP4 by fluorescence quenching; conditions: FIG. 9
Source text: FIG. 9 is a series of graphs showing the binding of (R)-all-trans-13,14-dihydroretinol and (S)-all-trans-13,14-dihydroretinol to RBP4, as determined by fluorescence quenching.
In another aspect of the present invention, the marker corresponding to the level and/or activity of an all-trans-retinol:all-trans-13,14-dihydroretinol saturase polypeptide may comprise a metabolite, such as a retinoid, associated with all-trans-retinol:all-trans-13,14-dihydroretinol saturase activity. The marker can include, for example, a retinoid having a saturated C13-14 double bond. More particularly, the retinoid having a saturated C13-14 double bond can include all-trans-13,14-dihydroretinol and/or all-trans-13,14-dihydrotretinoic acid. […] Increased levels of RBP4 are associated with the metabolic syndrome, diabetic disease and correlate with increased insulin resistance, obesity and visceral adiposity. Various techniques known in the art may be used to detect dihydroretinoid metabolite levels in a tissue sample, including, but not limited to, chromatography-based methods, electrophoresis and sedimentation, mass spectroscopy, and/or antibody-based methods. […]

Row | Compound | activation of retinoic acid receptor (RAR/RARE) [1] | activation of GPR40 [2] | effect on blood glucose after injection (wild type mice) | binding to RBP4 [3]
1 | CC1=C(/C=C/C(C)=C/C=C/C(C)CC(=O)O)C(C)(C)CCC1 (stereo not drawn) [all-trans-13,14-dihydroretinoic acid] | activator | activator; also recorded: can be activated by all-trans-13,14-dihydroretinoic acid |  | 
2 | CC1=C(/C=C/C(C)=C/C=C/C(C)CCO)C(C)(C)CCC1 (stereo not drawn) [all-trans-13,14-dihydroretinol] |  |  | prolonged hypoglycemia | 
3 | CC1=C(/C=C/C(C)=C/C=C/[C@@H](C)CC(=O)O)C(C)(C)CCC1 (stereo in doubt) [(S)-all-trans-13,14-dihydroretinoic acid] | can activate RAR |  |  | 
4 | CC1=C(/C=C/C(C)=C/C=C/[C@H](C)CCO)C(C)(C)CCC1 [(R)-all-trans-13,14-dihydroretinol, (13R)-13,14-Dihydroretinol] | can also activate RAR |  |  | associated with the carrier protein retinol binding protein 4 (RBP4)
5 | CC1=C(/C=C/C(C)=C/C=C/[C@@H](C)CCO)C(C)(C)CCC1 [(S)-all-trans-13,14-dihydroretinol, (13S)-13,14-Dihydroretinol] | can also activate RAR |  |  | associated with the carrier protein retinol binding protein 4 (RBP4)
6 | CC1=C(/C=C/C(C)=C/C=C/[C@H](C)CC(=O)O)C(C)(C)CCC1 (stereo in doubt) [(R)-all-trans-13,14-dihydroretinoic acid] | can activate RAR |  |  | 
